Laboratory results taken from publication PMC13494539 (Cell Reports Methods, 2026).

Molecular target: CRL4^CRBN-pomalidomide-SALL4 ZF1-ZF2 (aa 378–453) ternary complex (Homo sapiens, UniProt Q96SW2+Q9UJQ4)
Conditions: presence vs absence of pomalidomide

Sequence of CRL4^CRBN-pomalidomide-SALL4 ZF1-ZF2 (aa 378–453) ternary complex (Q9UJQ4 378-453 limits assumed): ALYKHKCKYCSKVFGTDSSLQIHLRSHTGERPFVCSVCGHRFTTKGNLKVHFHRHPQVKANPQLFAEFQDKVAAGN
Sequence of CRL4^CRBN-pomalidomide-SALL4 ZF1-ZF2 (aa 378–453) ternary complex (Q96SW2 whole entry, the tested form may be a part): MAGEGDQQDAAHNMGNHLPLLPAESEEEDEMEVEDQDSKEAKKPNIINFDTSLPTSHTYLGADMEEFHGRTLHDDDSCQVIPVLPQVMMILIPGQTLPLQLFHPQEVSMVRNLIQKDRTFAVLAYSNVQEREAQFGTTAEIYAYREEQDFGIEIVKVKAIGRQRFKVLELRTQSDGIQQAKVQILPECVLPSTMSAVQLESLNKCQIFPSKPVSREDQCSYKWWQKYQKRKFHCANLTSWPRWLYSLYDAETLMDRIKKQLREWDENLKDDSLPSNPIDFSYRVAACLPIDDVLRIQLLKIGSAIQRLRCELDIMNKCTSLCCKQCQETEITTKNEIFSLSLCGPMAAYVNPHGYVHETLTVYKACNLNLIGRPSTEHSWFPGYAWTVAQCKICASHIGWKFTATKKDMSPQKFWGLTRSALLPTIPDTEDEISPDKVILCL
Sequence of CRL4^CRBN-pomalidomide-SALL4 ZF1-ZF2 (aa 378–453) ternary complex (Q16531 whole entry partner, the tested form may be a part): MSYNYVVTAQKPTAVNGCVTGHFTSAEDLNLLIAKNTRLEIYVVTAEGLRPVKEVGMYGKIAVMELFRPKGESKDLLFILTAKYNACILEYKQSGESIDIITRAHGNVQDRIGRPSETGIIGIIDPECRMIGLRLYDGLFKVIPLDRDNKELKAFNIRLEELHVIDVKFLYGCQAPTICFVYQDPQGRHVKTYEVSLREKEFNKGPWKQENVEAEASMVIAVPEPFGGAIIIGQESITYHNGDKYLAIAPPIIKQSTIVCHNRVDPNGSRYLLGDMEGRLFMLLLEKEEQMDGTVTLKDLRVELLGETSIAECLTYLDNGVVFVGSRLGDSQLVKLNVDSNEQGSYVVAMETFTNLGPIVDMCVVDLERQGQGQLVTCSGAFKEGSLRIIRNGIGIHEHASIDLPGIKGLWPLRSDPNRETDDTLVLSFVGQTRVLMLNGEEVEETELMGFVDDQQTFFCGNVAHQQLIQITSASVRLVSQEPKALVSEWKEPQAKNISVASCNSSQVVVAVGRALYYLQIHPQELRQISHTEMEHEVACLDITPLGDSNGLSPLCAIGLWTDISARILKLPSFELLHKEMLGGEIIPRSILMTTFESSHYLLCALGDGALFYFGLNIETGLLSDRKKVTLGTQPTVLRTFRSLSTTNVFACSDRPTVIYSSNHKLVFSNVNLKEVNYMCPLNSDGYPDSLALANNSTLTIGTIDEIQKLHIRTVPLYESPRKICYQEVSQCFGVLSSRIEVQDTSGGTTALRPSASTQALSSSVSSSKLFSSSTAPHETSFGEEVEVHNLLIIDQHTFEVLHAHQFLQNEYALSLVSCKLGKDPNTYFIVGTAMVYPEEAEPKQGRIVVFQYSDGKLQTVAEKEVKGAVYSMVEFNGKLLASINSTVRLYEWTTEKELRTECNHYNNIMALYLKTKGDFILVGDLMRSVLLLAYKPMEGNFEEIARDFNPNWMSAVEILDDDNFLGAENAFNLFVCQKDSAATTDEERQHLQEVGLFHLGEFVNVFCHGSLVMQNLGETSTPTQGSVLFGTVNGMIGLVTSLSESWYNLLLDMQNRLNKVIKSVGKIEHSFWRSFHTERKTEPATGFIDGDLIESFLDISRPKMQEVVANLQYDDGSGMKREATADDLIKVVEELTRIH
Sequence of CRL4^CRBN-pomalidomide-SALL4 ZF1-ZF2 (aa 378–453) ternary complex (Q13619 whole entry partner, the tested form may be a part): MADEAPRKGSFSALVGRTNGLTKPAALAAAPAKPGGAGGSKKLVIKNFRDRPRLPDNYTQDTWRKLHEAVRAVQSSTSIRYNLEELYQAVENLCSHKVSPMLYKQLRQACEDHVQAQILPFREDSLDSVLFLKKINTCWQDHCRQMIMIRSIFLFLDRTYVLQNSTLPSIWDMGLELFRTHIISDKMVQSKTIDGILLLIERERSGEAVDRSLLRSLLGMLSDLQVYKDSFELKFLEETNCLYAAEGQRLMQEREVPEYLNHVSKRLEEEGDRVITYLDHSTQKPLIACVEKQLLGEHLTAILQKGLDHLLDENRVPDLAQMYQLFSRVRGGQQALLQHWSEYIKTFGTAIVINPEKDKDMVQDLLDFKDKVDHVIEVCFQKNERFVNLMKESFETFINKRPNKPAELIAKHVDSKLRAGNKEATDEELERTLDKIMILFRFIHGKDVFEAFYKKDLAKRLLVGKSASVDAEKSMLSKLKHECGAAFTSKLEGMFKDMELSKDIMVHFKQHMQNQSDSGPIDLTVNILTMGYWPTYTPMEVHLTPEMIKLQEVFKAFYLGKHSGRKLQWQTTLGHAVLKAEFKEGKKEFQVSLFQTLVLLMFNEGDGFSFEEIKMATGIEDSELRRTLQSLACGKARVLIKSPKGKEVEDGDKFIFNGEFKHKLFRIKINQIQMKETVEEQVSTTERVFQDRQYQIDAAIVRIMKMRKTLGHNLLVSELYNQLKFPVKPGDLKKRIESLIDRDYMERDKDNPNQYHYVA
Sequence of CRL4^CRBN-pomalidomide-SALL4 ZF1-ZF2 (aa 378–453) ternary complex (P62877 whole entry partner, the tested form may be a part): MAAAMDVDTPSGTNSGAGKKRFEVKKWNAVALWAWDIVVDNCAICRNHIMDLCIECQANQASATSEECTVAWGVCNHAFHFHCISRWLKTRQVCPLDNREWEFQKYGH
Sequence of CRL4^CRBN-pomalidomide-SALL4 ZF1-ZF2 (aa 378–453) ternary complex (Q15843 1-76 partner limits assumed): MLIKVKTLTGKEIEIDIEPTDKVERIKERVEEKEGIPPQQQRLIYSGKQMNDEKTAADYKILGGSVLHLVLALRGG

- enhancement of SALL4 recruitment by CRL4^CRBN in the presence of pomalidomide: more than 10 fold
SMILES: Nc1cccc2c1C(=O)N(C1CCC(=O)NC1=O)C2=O (stereo not shown) [Pomalidomide]
